Results taken from PubChem BioAssay (NCI).
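GI50 is the concentration that inhibits growth by half. TGI marks complete inhibition of growth.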

Key:
Experiment in all cases: NCI tumour cell line growth inhibition, 384-well format
[1] = tested on: CAKI-1 renal
[2] = tested on: COLO 205 colon
[3] = tested on: HCT-116 colon
[4] = tested on: HL-60(TB) leukemia
[5] = tested on: HS 578T breast
[6] = tested on: K-562 leukemia
[7] = tested on: KM12 colon
[8] = tested on: LOX IMVI melanoma
[9] = tested on: MDA-MB-435 melanoma
[10] = tested on: MDA-MB-468 breast
[11] = tested on: NCI-H522 lung
[12] = tested on: NCI/ADR-RES ovarian
[13] = tested on: UACC-62 melanoma

Compound `C=CC(=O)Nc1cccc(Oc2nc(Nc3ccc(N4CCN(C)CC4)cc3)nc3ccsc23)c1` has a GI50 [1] of 833 nM, a TGI [1] of 2150 nM and a GI50 [2] of 1830 nM. The TGI [2] was 3250 nM, the GI50 [3] was 1680 nM and the TGI [3] was 3090 nM. It also gave a GI50 [4] of 1600 nM, a TGI [4] of 2970 nM and a GI50 [5] of 1450 nM. For the same compound, the TGI [5] was 2800 nM, the GI50 [6] was 1380 nM and the TGI [6] was 2720 nM. It also gave a GI50 [7] of 1590 nM, a TGI [7] of 3120 nM and a GI50 [8] of 1810 nM. The TGI [8] was 3220 nM, the GI50 [9] was 1780 nM and the TGI [9] was 3200 nM. It also gave a GI50 [10] of 191 nM, a TGI [10] of 629 nM and a GI50 [11] of 334 nM. The TGI [11] was 1410 nM, the GI50 [12] was 1940 nM and the TGI [12] was 4000 nM. For the same compound, the GI50 [13] was 1520 nM and the TGI [13] was 2870 nM.
